pIC50: −log10 of the molar value.

T1 sequence (O75762 whole entry): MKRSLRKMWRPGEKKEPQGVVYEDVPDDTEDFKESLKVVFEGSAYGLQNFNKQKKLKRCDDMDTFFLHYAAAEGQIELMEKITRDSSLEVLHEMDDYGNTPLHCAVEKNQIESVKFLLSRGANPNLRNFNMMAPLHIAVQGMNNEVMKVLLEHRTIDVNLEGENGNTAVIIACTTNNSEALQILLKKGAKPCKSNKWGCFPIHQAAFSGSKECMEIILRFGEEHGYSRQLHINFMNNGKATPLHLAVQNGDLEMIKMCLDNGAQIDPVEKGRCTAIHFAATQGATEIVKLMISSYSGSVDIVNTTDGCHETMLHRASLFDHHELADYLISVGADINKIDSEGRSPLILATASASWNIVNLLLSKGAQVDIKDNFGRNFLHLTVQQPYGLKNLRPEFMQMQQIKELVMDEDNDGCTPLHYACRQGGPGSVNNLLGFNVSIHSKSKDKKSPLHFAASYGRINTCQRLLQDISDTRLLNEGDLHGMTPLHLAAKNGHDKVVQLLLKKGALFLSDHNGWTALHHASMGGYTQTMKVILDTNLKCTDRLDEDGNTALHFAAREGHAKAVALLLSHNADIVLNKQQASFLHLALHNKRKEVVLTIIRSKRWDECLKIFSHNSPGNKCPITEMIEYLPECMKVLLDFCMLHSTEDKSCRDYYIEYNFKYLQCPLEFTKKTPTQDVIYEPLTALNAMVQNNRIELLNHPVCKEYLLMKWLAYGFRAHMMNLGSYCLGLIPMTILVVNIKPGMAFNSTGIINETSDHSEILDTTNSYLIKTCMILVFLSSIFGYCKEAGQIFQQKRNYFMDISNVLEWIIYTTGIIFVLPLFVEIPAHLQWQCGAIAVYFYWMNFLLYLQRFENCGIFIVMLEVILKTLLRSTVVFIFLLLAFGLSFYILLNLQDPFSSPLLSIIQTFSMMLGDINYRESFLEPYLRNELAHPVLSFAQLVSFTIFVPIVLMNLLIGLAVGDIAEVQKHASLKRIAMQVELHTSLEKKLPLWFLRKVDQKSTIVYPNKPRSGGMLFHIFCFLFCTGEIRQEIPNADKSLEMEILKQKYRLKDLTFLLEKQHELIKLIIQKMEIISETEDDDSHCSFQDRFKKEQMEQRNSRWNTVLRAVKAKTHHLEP

The first assay addresses T1, human TRPA1 (Homo sapiens, UniProt O75762).
T1 construct: expressed in transfected cells; host or cells: Human embryonic kidney-derived 293T cells, transiently transfected with the pcDNA3.1/zeo(+) human TRPA1 plasmid
The assay can be described thus: Measurement of TRPA1 antagonist activity (intracellular calcium increase, FLIPR, allylisothiocyanate stimulation). In kind it is cell-based. As to conditions: 293T cells transfected with human TRPA1; allylisothiocyanate 20 μM; concentration for 50% inhibitory rate; read-out: antagonism hTRPA1. From the text: Measurement of TRPA1 Antagonist Activity
Human TRPA1 Expression Plasmid
As cDNA encoding human TRPA1 (GenBank accession No. […]), a commercially available product was purchased (manufactured by Kazusa DNA Research Institute, clone No.: pFN21AB7348, item No.: FHC07217). Using this as a template, full-length human TRPA1 gene was amplified using the primer sequences shown below, by reaction using DNA polymerase (manufactured by Stratagene, trade name: PfuUltra High-Fidelity DNA Polymerase).
A recognition site (underlined) of restriction enzyme HindIII was added to the 5′ side, and XbaI site (underlined) was added to the 3′ side, and GTT of the template sequence was changed to termination codon TAG (bold). The obtained double stranded DNA was enzyme-digested with HindIII and XbaI, and introduced into a multicloning site of expression plasmid pcDNA3.1/zeo(+) (manufactured by Invitrogen) to give a human TRPA1 expression plasmid.
Human embryonic kidney-derived 293T cells were cultured in Dulbecco's Modified Eagle Medium containing 10% fetal bovine serum, 10 unit penicillin, and 10 μg streptomycin, plated on a petri dish having a diameter of 10 cm at 3×10^6 cells, and cultured for 24 hr. A medium containing a reduced amount of serum (manufactured by Invitrogen, trade name: OPTI-MEM, 600 μL), a gene insertion reagent (manufactured by Mirus Bio, trade name: Mirus TransIT-293, 18 μL), and human TRPA1 expression plasmid (6 μg) were mixed, the total amount of the mixture was added to the cells on the petri dish to allow for gene transfer. The cells were recovered about 8 hr later, plated on a poly-D-lysine coated 384 well black/clear bottom plate at 7,500-12,000 cells/well, and cultured overnight.
Measurement of Intracellular Calcium Increase
The 384 well plate was recovered, and the medium was removed. A calcium-bonded fluorescent indicator (manufactured by Molecular Device, trade name: Calcium4 Assay Kit, 40 μL) dissolved in assay buffer (1×HBSS, 20 mM HEPES, pH 7.2) was added, and the cells were stained in a 37° C. incubator for 1 hr. The cells were taken out at room temperature and left standing for 15 min or more. A test substance (10 μL) was added by a 384 well type dispenser, and the mixture was incubated at room temperature for 10 min. Then, allylisothiocyanate (12.5 μL) at a final concentration of 20 μM was added by a fluorescence imaging plate reader (manufactured by Molecular Device, FLIPR), and changes in the relative fluorescence intensity were measured for 5 min.
Test Substance Preparation
The test substance was dissolved in dimethyl sulfoxide and serially diluted with an assay buffer containing 0.1% bovine serum albumin (1×HBSS, 20 mM HEPES, pH 7.2) to a 5-fold concentration of the evaluation concentration. Allylisothiocyanate, which is a known TRPA1 activator, was dissolved in dimethyl sulfoxide to 100 mM, and further diluted 5-fold (100 μM) of the final concentration, like the test substance.
Calculation of Antagonist Activity
Under the test substance-free conditions, the maximum variation range of the fluorescence intensity before and after allylisothiocyanate stimulation was defined to be 100% activity rate, and the variation range before and after buffer stimulation was defined as 0% activity rate. The activity rate on addition of the test substance was determined, and the numerical value obtained by subtracting the activity rate from 100 was defined to be an inhibitory rate. 1050, which is the concentration of the test substance necessary for reaching the 50% inhibitory rate, was calculated from the sigmoid approximate curve by a spreadsheet software Excel-Fit.
In the case of `O=C(NCc1ccc(Oc2ccccc2)cc1)[C@@H]1CCCN1S(=O)(=O)c1ccc(Cl)s1` [Example 1, (2S)-1-(5-chlorothiophene-2-sulfonyl)-N-[(4-phenoxyphenyl)methyl]pyrrolidine-2-carboxamide], the pIC50 was 6.66.

Take `O=C(NCc1ccc(Oc2ccc(C(F)(F)F)cc2)cc1)[C@@H]1CCCN1S(=O)(=O)c1ccc(Cl)s1` [Example 2]: the pIC50 was 6.68.

With `O=C(NCc1ccc(Oc2ccc(OC(F)(F)F)cc2)cc1)[C@@H]1CCCN1S(=O)(=O)c1ccc(Cl)s1` [Example 3], the pIC50 was 7.06.

As for `O=C(NCc1ccc(Oc2ccc(Cl)cc2)cc1)[C@@H]1CCCN1S(=O)(=O)c1ccc(Cl)s1` [Example 4, (2S)-N-{[4-(4-chlorophenoxy)phenyl]methyl}-1-(5-chlorothiophene-2-sulfonyl)pyrrolidine-2-carboxamide], the pIC50 was 7.00.

Turning to `O=C(NCc1ccc(Oc2ccc(F)cc2)cc1)[C@@H]1CCCN1S(=O)(=O)c1ccc(Cl)s1` [Example 5, (2S)-1-(5-chlorothiophene-2-sulfonyl)-N-{[4-(4-fluorophenoxy)phenyl]methyl)pyrrolidine-2-carboxamide], the pIC50 is 6.89.

`O=C(NCc1ccc(Oc2cccc(C(F)(F)F)c2)cc1)[C@@H]1CCCN1S(=O)(=O)c1ccc(Cl)s1` [Example 6, (2S)-1-(5-chlorothiophene-2-sulfonyl)-N-({4-[3-(trifluoromethyl)phenoxy]phenyl}methyl)pyrrolidine-2-carboxamide]: the pIC50 was 7.00.

With `O=C(NCc1ccc(Oc2cccc(OC(F)(F)F)c2)cc1)[C@@H]1CCCN1S(=O)(=O)c1ccc(Cl)s1` [Example 7, (2S)-1-(5-chlorothiophene-2-sulfonyl)-N-({4-[3-(trifluoromethoxy)phenoxy]phenyl}methyl)pyrrolidine-2-carboxamide], the pIC50 was 7.09.

In the case of `O=C(NCc1ccc(Oc2cccc(Cl)c2)cc1)[C@@H]1CCCN1S(=O)(=O)c1ccc(Cl)s1` [Example 8, (2S)-N-{[4-(3-chlorophenoxy)phenyl]methyl}-1-(5-chlorothiophene-2-sulfonyl)pyrrolidine-2-carboxamide], the pIC50 is 7.00.

Consider `O=C(NCc1ccc(Oc2cccc(F)c2)cc1)[C@@H]1CCCN1S(=O)(=O)c1ccc(Cl)s1` [Example 9, (2S)-1-(5-chlorothiophene-2-sulfonyl)-N-{[4-(3-fluoro-phenoxy)phenyl]methyl}pyrrolidine-2-carboxamide], for which the pIC50 is 6.77.

For the molecule `O=C(NCc1ccc(Oc2ccccc2C(F)(F)F)cc1)[C@@H]1CCCN1S(=O)(=O)c1ccc(Cl)s1` [Example 10, (2S)-1-(5-chlorothiophene-2-sulfonyl)-N-({4-[2-(trifluoro-methyl)phenoxy]phenyl}methyl)pyrrolidine-2-carboxamide], the pIC50 was 6.35.

Turning to `O=C(NCc1ccc(Oc2ccc(F)c(Cl)c2)cc1)[C@@H]1CCCN1S(=O)(=O)c1ccc(Cl)s1` [Example 11, (2S)-N-{[4-(3-chloro-4-fluoro-phenoxy)phenyl]methyl}-1-(5-chlorothiophene-2-sulfonyl)pyrrolidine-2-carboxamide], the pIC50 was 6.70.

For the molecule `O=C(NCc1ccc(Oc2ccnc(C(F)(F)F)c2)cc1)[C@@H]1CCCN1S(=O)(=O)c1ccc(Cl)s1` [Example 12, (2S)-1-(5-chlorothiophene-2-sulfonyl)-N-((4-{[2-(trifluoro-methyl)-4-pyridyl]oxy}phenyl)methyl)pyrrolidine-2-carboxamide], the pIC50 was 7.06.

For the molecule `O=C(NCc1ccc(Oc2ccnc(Cl)c2)cc1)[C@@H]1CCCN1S(=O)(=O)c1ccc(Cl)s1` [Example 13, (2S)-N-({4-[(2-chloro-4-pyridyl)oxy]phenyl}methyl)-1-(5-chlorothiophene-2-sulfonyl)pyrrolidine-2-carboxamide], the pIC50 was 6.74.

Consider `O=C(NCc1cccc(Oc2ccccc2)c1)[C@@H]1CCCN1S(=O)(=O)c1ccc(Cl)s1` [Example 14, (2S)-1-(5-chlorothiophene-2-sulfonyl)-N-[(3-phenoxyphenyl)methyl]pyrrolidine-2-carboxamide], for which the pIC50 is 6.62.

As for `O=C(NCc1cccc(Oc2ccc(C(F)(F)F)cc2)c1)[C@@H]1CCCN1S(=O)(=O)c1ccc(Cl)s1` [Example 15, (2S)-1-(5-chlorothiophene-2-sulfonyl)-N-({3-[4-(trifluoro-methyl)phenoxy]phenyl}methyl)pyrrolidine-2-carboxamide], the pIC50 was 7.82.

For `O=C(NCc1cccc(Oc2ccc(OC(F)(F)F)cc2)c1)[C@@H]1CCCN1S(=O)(=O)c1ccc(Cl)s1` [Example 16, (2S)-1-(5-chlorothiophene-2-sulfonyl)-N-({3-[4-(trifluoro-methoxy)phenoxy]phenyl}methyl)pyrrolidine-2-carboxamide], the pIC50 was 7.00.

Turning to `O=C(NCc1cccc(Oc2ccc(Cl)cc2)c1)[C@@H]1CCCN1S(=O)(=O)c1ccc(Cl)s1` [Example 17, (2S)-N-{[3-(4-chlorophenoxy)phenyl]methyl}-1-(5-chlorothiophene-2-sulfonyl)pyrrolidine-2-carboxamide], the pIC50 is 6.92.

As for `O=C(NCc1cccc(Oc2ccc(F)cc2)c1)[C@@H]1CCCN1S(=O)(=O)c1ccc(Cl)s1` [Example 18, (2S)-1-(5-chlorothiophene-2-sulfonyl)-N-{[3-(4-fluoro-phenoxy)phenyl]methyl}pyrrolidine-2-carboxamide], the pIC50 is 6.89.

`O=C(NCc1cccc(Oc2cccc(C(F)(F)F)c2)c1)[C@@H]1CCCN1S(=O)(=O)c1ccc(Cl)s1` [Example 19, (2S)-1-(5-chlorothiophine-2-sulfonyl)-N-({3-[3-(trifluoro-methyl)phenoxy]phenyl}methyl)pyrrolidine-2-carboxamide]: the pIC50 is 7.10.

Consider `O=C(NCc1cccc(Oc2cccc(OC(F)(F)F)c2)c1)[C@@H]1CCCN1S(=O)(=O)c1ccc(Cl)s1` [Example 20, (2S)-1-(5-chlorothiophene-2-sulfonyl)-N-({3-[3-(trifluoro-methoxy)phenoxy]phenyl}methyl)pyrrolidine-2-carboxamide], for which the pIC50 was 7.15.

In the case of `O=C(NCc1cccc(Oc2cccc(Cl)c2)c1)[C@@H]1CCCN1S(=O)(=O)c1ccc(Cl)s1` [Example 21, (2S)-N-{[3-(3-chlorophenoxy)phenyl]methyl}-1-(5-chloro-thiophene-2-sulfonyl)pyrrolidine-2-carboxamide], the pIC50 is 7.35.

The assay is the same for the next values; noted with them: allylisothiocyanate 20 μM stimulation, FLIPR calcium assay; read-out: antagonism hTRPA1.
For `CC(Oc1cccc(CNC(=O)[C@@H]2CCCN2S(=O)(=O)c2ccc(F)cc2)c1)c1ccccc1` (stereo in doubt) [Example 143, (2S)-1-(4-fluorophenyl)sulfonyl-N-[[3-[(1R)-1-phenylethoxy]phenyl]methyl]pyrrolidine-2-carboxamide], the pIC50 was 6.72.

With `CC(Oc1cccc(CNC(=O)[C@@H]2CCCN2S(=O)(=O)c2ccc(F)cc2)c1)c1ccc(Cl)cc1` (stereo in doubt) [Example 145, (2S)-N-[[3-[(1R)-1-(4-chlorophenyl)ethoxy]phenyl]methyl]-1-(4-fluorophenyl)sulfonyl-pyrrolidine-2-carboxamide], the pIC50 is 7.19.

In the case of `O=C(NCc1cccc(Oc2ccc(C(F)(F)F)cc2)c1)[C@@H]1CC(F)CN1S(=O)(=O)c1ccc(F)cc1` (stereo in doubt) [Example 158, (2S,4R)-4-fluoro-1-(4-fluorophenyl)sulfonyl-N-[[3-[4-(trifluoromethyl)phenoxy]phenyl]methyl]pyrrolidine-2-carboxamide], the pIC50 was 6.55.

For the origin of these results see US20150284375A1 (AJINOMOTO CO., INC., priority 2012, published 2015).
